{"source": "patent US20260284189A1", "about": "“TREATMENT OF NON-SMALL CELL LUNG CANCER” (ASTRAZENECA AB, priority 2023, published 2026)", "tested_on": "resectable non-small cell lung cancer (R-NSCLC)", "experiment": "AEGEAN phase III: event-free survival (EFS) by blinded independent central review", "type": "in vivo, human", "description": "As used herein, the terms “event-free survival” or “EFS” refer to the time from randomization to the first of the following: a) local or distant recurrence as determined by BICR using RECIST 1.1 assessments; b) death due to any cause (event date is the date of death); c) PD that precludes surgery (event date is the date of this determination) or PD discovered and reported by the Investigator upon attempting surgery that prevents completion of surgery (event date is the date of the first attempt at surgery). Event-free survival can be analyzed using the log-rank test based on blinded independent central review (BICR) assessment using RECIST v1.1 and pathology review stratified by disease stage (Stage II versus Stage III) and by PD-L1 expression status (<1% versus >1%) on the mITT. The p-value can be obtained from the stratified log-rank test using the Efron (Hertz-Picciotto and Rockhill “Validity and efficiency of approximation methods for tied survival times in Cox regression.” Biometrics 1997; 53(3):1151-6.) approach for handling ties.\nThe AEGEAN (NCT03800134) study described herein is a phase III, double-blind, placebo-controlled, multi-center international study of assessed perioperative (i.e. neoadjuvant and adjuvant) durvalumab plus neoadjuvant chemotherapy for the treatment of patients with resectable stage II and stage III non-small cell lung cancer (R-NSCLC).\nThe study enrolled approximately 1300 patients and randomized approximately 800 eligible patients. Eligible patients had newly diagnosed, previously untreated, histologically or cytologically documented, resectable NSCLC (stage IIA to select [N2] stage IIIB according to the American Joint Committee on Cancer [AJCC] Cancer Staging Manual, version 8). Patients were randomized in a 1:1 ratio to receive either durvalumab plus a platinum-based chemotherapy before surgery followed by durvalumab post-surgery (Arm 1; a platinum-based chemotherapy plus durvalumab intravenously every three weeks (four cycles) before surgery, followed by durvalumab intravenously every four weeks (12 cycles)) or placebo plus a platinum-based chemotherapy before surgery followed by placebo post-surgery (Arm 2; a platinum-based chemotherapy plus placebo intravenously every three weeks (four cycles) before surgery, followed by placebo intravenously every four weeks (12 cycles)). Patients were also stratified by disease stage (Stage II versus Stage III) and by PD-L1 expression status (<1% versus ≥1%).\nThe two primary efficacy endpoints in this study were event-free survival (EFS; per blinded independent central review [BICR]) and pathological complete response (pCR; evaluated centrally). […]\nComparisons between the study arms were analyzed using stratified log-rank tests. […]", "key": {"[1]": {"conditions": "mITT subgroup, durvalumab versus placebo, unstratified Cox model"}}}
{"substance": "Durvalumab: antibody that selectively binds PD-L1 and blocks binding of PD-L1 to PD-1 and CD80; arm given with platinum-based chemotherapy before surgery", "values": [{"measurement": "EFS stratified hazard ratio, durvalumab arm versus placebo arm", "setting": "mITT N=740, BICR, first interim analysis, 31.9% maturity, data cut-off Nov. 10, 2022", "result": 0.68}, {"measurement": "EFS HR, planned neoadjuvant platinum agent carboplatin", "setting": "[1]", "result": 0.73}, {"measurement": "EFS HR, planned neoadjuvant platinum agent cisplatin", "setting": "[1]", "result": 0.59}, {"measurement": "median EFS", "setting": "mITT, BICR, first interim analysis, 31.9% maturity", "result": "not reached"}]}
